#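 Step 1: Grow cells in 96-well plates. Step 2: Expose to compound for 48 hours at 5 concentrations. Step 3: Interpolate endpoints linearly; if unreached, use highest concentration. GI50 is the concentration that inhibits growth by half. TGI is the concentration that stops growth completely.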
# Key:
# Test in all cases: NCI-60 cell line screen, 48 h
# [1] = tested on: SR leukemia
# [2] = tested on: UACC-257 melanoma
# [3] = tested on: HCT-15 colon
# [4] = tested on: BT-549 breast
# [5] = tested on: UACC-62 melanoma
# [6] = tested on: RXF 393 renal
# [7] = tested on: EKVX NSCLC
# [8] = tested on: SNB-75 CNS
# [9] = tested on: NCI-H460 lung
# [10] = tested on: SK-OV-3 ovarian
# [11] = tested on: SK-MEL-28 melanoma
# [12] = tested on: HS 578T breast
# [13] = tested on: SF-295 CNS
# [14] = tested on: KM12 colon
# [15] = tested on: HT29 colon
# [16] = tested on: NCI/ADR-RES ovarian
# [17] = tested on: ACHN renal
# [18] = tested on: HL-60(TB) leukemia
# [19] = tested on: SF-539 CNS
# [20] = tested on: CCRF-CEM leukemia
# [21] = tested on: MCF7 breast
# [22] = tested on: IGROV1 ovarian
# [23] = tested on: MDA-MB-435
# [24] = tested on: SK-MEL-5 melanoma
# [25] = tested on: RPMI-8226 leukemia
# [26] = tested on: NCI-H226 lung
# [27] = tested on: A498 renal
# [28] = tested on: HCT-116 colon
# [29] = tested on: HOP-62 NSCLC
compound,measurement,setting,value
CCC(=C/[C@H](C)C/C=C/C(C)=C/[C@@H](C)C(=O)[C@@H](C)[C@H](O)[C@@H](C)CC)/C=C/[C@@H]1OC(=O)C=C[C@@H]1C,TGI,[1],219 nM
same,GI50,[2],< 5 nM
same,TGI,[2],8900 nM
same,GI50,[3],< 5 nM
same,TGI,[3],409 nM
same,GI50,[4],< 5 nM
same,TGI,[4],< 5 nM
same,GI50,[5],< 5 nM
same,TGI,[5],243 nM
same,GI50,[6],< 5 nM
same,TGI,[6],71.1 nM
same,GI50,[7],< 5 nM
same,TGI,[7],8330 nM
same,GI50,[8],< 5 nM
same,TGI,[8],77.3 nM
same,GI50,[9],< 5 nM
same,TGI,[9],53.3 nM
same,GI50,[10],< 5 nM
same,TGI,[10],6500 nM
same,GI50,[11],< 5 nM
same,TGI,[11],75.7 nM
same,GI50,[12],< 5 nM
same,TGI,[12],2450 nM
same,GI50,[13],< 5 nM
same,TGI,[13],7490 nM
same,GI50,[14],< 5 nM
same,TGI,[14],5170 nM
same,GI50,[15],< 5 nM
same,TGI,[15],5310 nM
same,GI50,[16],< 5 nM
same,TGI,[16],1370 nM
same,GI50,[17],< 5 nM
same,TGI,[17],6290 nM
same,GI50,[18],< 5 nM
same,TGI,[18],< 5 nM
same,GI50,[19],< 5 nM
same,TGI,[19],< 5 nM
same,GI50,[20],< 5 nM
same,TGI,[20],1800 nM
same,GI50,[21],< 5 nM
same,TGI,[21],158 nM
same,GI50,[22],92.6 nM
same,TGI,[22],7880 nM
same,GI50,[23],< 5 nM
same,TGI,[23],< 5 nM
same,GI50,[24],< 5 nM
same,TGI,[24],< 5 nM
same,GI50,[25],< 5 nM
same,TGI,[25],< 5 nM
same,GI50,[26],< 5 nM
same,TGI,[26],< 5 nM
same,GI50,[27],< 5 nM
same,TGI,[27],< 5 nM
same,GI50,[28],< 5 nM
same,TGI,[28],< 5 nM
same,GI50,[29],< 5 nM
same,TGI,[29],874 nM
